Test results published in patent publication US11246856B2, “Methods of treating resistant cancers” (University of Maryland, Baltimore, priority 2017, dated 2022).

How the values were obtained:
pre-formed spheroids = experiment: Treatment of pre-formed spheroids; format: cell-based
Experimental: Cancer cells were maintained under attached conditions in growth media containing DMEM (Invitrogen, Frederick, Md.) supplemented with 4.5 mg/ml D-glucose, […] L-glutamine, 100 mg/ml sodium pyruvate, and 5% fetal calf serum. For spheroid culture, monolayer cultures were dissociated with 0.25% trypsin and the cells were collected by centrifugation, and resuspended in spheroid media, consisting of DMEM/F12 (1:1) (DMT-10-090-CV, Mediatech INC, Manassa, Va.) containing 2% B27 serum-free supplement (17504-044, Invitrogen, Frederick, Md.) 20 ng/ml EGF (E4269, Sigma, St. Louis), 0.4% bovine serum albumin (B4287, Sigma) and […] insulin (19278 Sigma, St. Louis, Mo.) and plated at 40,000 cells per 9.6 cm^2 well in six well ultra-low attachment Costar cluster dishes (4371, Corning, Tewksbury, Mass.). Parallel cultures were plated in spheroid media on conventional plastic dishes for growth as monolayer cultures.
Identification of agents that suppress survival of PLX4032-resistant cells, or re-sensitize these cells to PLX4032, is an important goal. […] YAP1 interacts with TEAD transcription factors to drive gene expression (6,28) and a small molecular inhibitor called verteporfin has been reported to disrupt YAP1/TEAD interaction by binding to YAP1 and altering its structure (6,16). The impact of verteporfin treatment on spheroid formation and matrigel invasion in PLX4032 sensitive and resistant MCS cells was examined.

tumor-derived cells = experiment: Matrigel invasion of cells from verteporfin-treated tumors; format: cell-based; conditions: FIG. 6H
Experimental: Tumors were initiated and treated with PLX4032 or verteporfin as above. At 4 weeks, the tumors were removed, mechanically dissociated and dispersed as single cell suspensions with 0.25% trypsin for 10 min and plated as monolayer cultures. After 24 h, the cells were harvested and seeded at 25,000 cells/well atop a 0.1 ml matrigel layer in Millicell (1 cm diameter, […]) chambers in the presence of a serum gradient (38). After 18 h, the membranes were stained with DAPI and the nuclei of migrated cells were visualized by inverted fluorescence microscopy (38).

verteporfin
reduction of spheroid number/integrity (pre-formed spheroids; 20 μM verteporfin, 3-day treatment, FIG. 4C legend): 30-50% | pre-formed spheroids after prolonged treatment (pre-formed spheroids; prolonged verteporfin treatment (not shown)): complete destruction | reduction of spheroid number/integrity (pre-formed spheroids; spheroids formed for 8 d, 3D treatment, FIG. 4C): 30-50% | matrigel invasion of tumor-derived cells after in vivo treatment (tumor-derived cells): reduced
